In DBAASP:
In brackets after ≈: the same amount, converted by molar mass. Several values for one entry are separate records, joined by “and”; a condition that tells them apart may be missing. Equal entries are not always repeated. Values belong to the molecule of their own block, whether it stands above or below them.

What was measured:
Assay in all cases: ≥ marks a high value that may be exact or a test limit, other limits are often not marked, values filed in µg/mL are converted to µM
[1] = test system: Escherichia coli CMCC 44102
[2] = test system: Bacillus subtilis CMCC 63501
[3] = test system: Pseudomonas aeruginosa CMCC 10104
[4] = test system: Staphylococcus aureus CMCC 26003
[5] = test system: Listeria monocytogenes ATCC 19115
[6] = test system: Pseudomonas putida NCIM 2102
Bacillus subtilis = test system: Bacillus subtilis
[7] = test system: Staphylococcus aureus 8530
Escherichia coli W160-37 = test system: Escherichia coli W160-37
[8] = test system: Saccharomyces cerevisiae FY1679
[9] = test system: Fusarium oxysporum f. sp. lycopersici ATCC 201829
[10] = test system: Escherichia coli DH5alpha
[11] = test system: Rhizopus stolonifer CECT 2344
[12] = test system: Penicillium digitatum PHI-26
[13] = test system: Penicillium expansum EPS 26
[14] = test system: Xanthomonas vesicatoria 2133-2
[15] = test system: Erwinia amylovora PMV 6076
[16] = test system: Aspergillus niger CECT 2694
[17] = test system: Pseudomonas syringae EPS 94
[18] = test system: Salmonella typhimurium DA23899
[19] = test system: Salmonella typhimurium DA22427
[20] = test system: Bacillus subtilis ATCC 6633
[21] = test system: Pseudomonas aeruginosa ATCC 27853
Escherichia coli K-12 = test system: Escherichia coli K-12
[22] = test system: Micrococcus luteus NCIMB 13267
[23] = test system: Staphylococcus aureus ATCC 6538
[24] = test system: Salmonella typhimurium DA6192
[25] = test system: Enterococcus faecalis NCTC 12697
[26] = test system: Candida albicans ATCC 10231
[27] = test system: Staphylococcus aureus NCTC 10788
[28] = test system: Escherichia coli NCTC 10418
[29] = test system: Escherichia coli ATCC 25922
[30] = test system: Staphylococcus aureus ATCC 25923
[31] = test system: Enterococcus faecalis ATCC 29212
[32] = test system: Staphylococcus aureus ATCC 12493
Escherichia coli = test system: Escherichia coli
[33] = test system: Klebsiella pneumoniae ATCC 700603
[34] = test system: Bacillus cereus ATCC 11778
[35] = test system: Listeria monocytogenes ATCC 15313
[36] = test system: Salmonella enterica subsp. enterica serovar Enteritidis ATCC 13076
[37] = test system: Candida albicans NCTC 1467
[38] = test system: Bacillus subtilis ATCC 23857
Micrococcus luteus A270 = test system: Micrococcus luteus A270
Escherichia coli SBS 363 = test system: Escherichia coli SBS 363
Candida albicans MDM8 = test system: Candida albicans MDM8

- MIC [18]: 25 µM (≈ 64.3 µg/mL)
- MIC [19]: 12 µM (≈ 30.9 µg/mL)
- MIC [20]: 5 µM (≈ 12.9 µg/mL)
- MIC [21]: 1.5 µM (≈ 3.86 µg/mL)
- MIC (Escherichia coli K-12): 6 µM (≈ 15.4 µg/mL)
- MIC [22]: 1 µM (≈ 2.57 µg/mL)
- MIC [23]: > 100 µM
- MIC [24]: 12 µM (≈ 30.9 µg/mL)
Compound: CC[C@H](C)[C@H](NC(=O)CNC(=O)[C@H](CC(N)=O)NC(=O)[C@H](CCCN=C(N)N)NC(=O)[C@@H](NC(=O)[C@H](CC(N)=O)NC(=O)[C@H](CCCN=C(N)N)NC(=O)CNC(=O)[C@H](CCSC)NC(=O)[C@H](CCCCN)NC(=O)[C@H](CCC(=O)O)NC(=O)[C@@H](NC(=O)[C@H](CCCCN)NC(=O)[C@H](CCCCN)NC(=O)[C@H](Cc1ccccc1)NC(=O)[C@@H](NC(=O)[C@H](CCCCN)NC(=O)[C@H](Cc1c[nH]c2ccccc12)NC(=O)[C@@H](N)CCCCN)C(C)C)[C@@H](C)CC)[C@@H](C)CC)C(=O)N[C@H](C(=O)N[C@@H](CCCCN)C(N)=O)C(C)C [KWKVFKKIEKMGRNIRNGIVK]

- MIC [25]: 8 µM (≈ 12.1 µg/mL)
- MIC [26]: 8 µM (≈ 12.1 µg/mL)
- MIC [27]: 2 µM (≈ 3.01 µg/mL)
- MIC [28]: 4 µM (≈ 6.03 µg/mL)
- MIC [29]: 4 µM and 8 µM
- MIC [21]: 8 µM and 16 µM
- MIC [30]: 4 µM (≈ 6.03 µg/mL)
- MIC [31]: ≥ 32 µM
- MIC [32]: 4 µM (≈ 6.03 µg/mL)
- MIC (Escherichia coli): 4 µM (≈ 6.03 µg/mL)
- MIC [33]: 8 µM (≈ 12.1 µg/mL)
- MIC [34]: 4 µM and 8 µM
- MIC [35]: 4 µM (≈ 6.03 µg/mL)
- MIC [36]: 4 µM (≈ 6.03 µg/mL)
- MIC [37]: 4 µM (≈ 6.03 µg/mL)
- MIC [38]: 4 µM (≈ 6.03 µg/mL)
Compound: CC[C@H](C)[C@H](NC(=O)[C@H](CCCCN)NC(=O)[C@H](CCCCN)NC(=O)[C@H](C)NC(=O)[C@@H](NC(=O)[C@H](C)NC(=O)[C@H](CC(C)C)NC(=O)[C@H](CC(C)C)NC(=O)[C@H](C)NC(=O)[C@H](CCCCN)NC(=O)[C@H](CC(C)C)NC(=O)[C@H](CC(N)=O)NC(=O)[C@@H](N)CC(C)C)C(C)C)C(=O)N[C@@H](CC(C)C)C(N)=O [LNLKALLAVAKKIL]

- MIC (Micrococcus luteus A270): 1.56 µM (≈ 1.85 µg/mL)
- MIC (Escherichia coli SBS 363): 3.12 µM (≈ 3.71 µg/mL)
- MIC (Candida albicans MDM8): 1.56 µM (≈ 1.85 µg/mL)
Compound: CC[C@H](C)[C@H](NC(=O)[C@H](CC(C)C)NC(=O)[C@H](CCCCN)NC(=O)[C@H](CCCN=C(N)N)NC(=O)[C@H](Cc1ccccc1)NC(=O)[C@H](CC(C)C)NC(=O)[C@H](CO)NC(=O)[C@H](CC(C)C)NC(=O)[C@H](CC(C)C)NC(=O)[C@@H](N)CO)C(N)=O [SLLSLFRKLI]

The remaining lines, values behind:

Compound: CC[C@H](C)[C@H](NC(=O)[C@H](CCCN=C(N)N)NC(=O)[C@H](CCCN=C(N)N)NC(=O)[C@H](Cc1c[nH]c2ccccc12)NC(=O)[C@@H](N)Cc1ccccc1)C(=O)N[C@@H](CCCN=C(N)N)C(=O)N[C@H](C(=O)N[C@H](C(=O)N1CCC[C@H]1C(=O)N[C@H](C(=O)N[C@H](C(=O)N[C@@H](CC(N)=O)C(=O)N1CCC[C@H]1C(=O)N[C@@H](Cc1c[nH]c2ccccc12)C(=O)N[C@@H](Cc1ccccc1)C(=O)N[C@@H](CC(C)C)C(=O)N[C@@H](CCC(N)=O)C(=O)N[C@@H](CCC(N)=O)C(=O)N[C@H](C(N)=O)[C@@H](C)O)C(C)C)C(C)C)[C@@H](C)O)C(C)C [FWRRIRVTPVVNPWFLQQT]
- MIC [1]: ≥ 105 µM
- MIC [2]: 26.2 µM (≈ 64 µg/mL)
- MIC [3]: ≥ 105 µM
- MIC [4]: 13.1 µM (≈ 32 µg/mL)
- MIC [5]: 13.1 µM (≈ 32 µg/mL)

Compound: CC[C@H](C)[C@H](NC(=O)[C@H](CC(C)C)NC(=O)[C@H](C)NC(=O)[C@@H]1CCCN1C(=O)[C@H](CC(C)C)NC(=O)CN)C(=O)N[C@@H](CO)C(=O)N[C@@H](Cc1c[nH]c2ccccc12)C(=O)N[C@H](C(=O)N[C@@H](CCCCN)C(=O)N[C@@H](CCCN=C(N)N)C(=O)N[C@@H](CCCCN)C(=O)N[C@@H](CCCN=C(N)N)C(=O)N[C@@H](CCC(N)=O)C(=O)N[C@@H](CCC(N)=O)C(=O)NCC(N)=O)[C@@H](C)CC [GLPALISWIKRKRQQG]
- MIC [6]: ≥ 108 µM
- MIC (Bacillus subtilis): 10.5 µM (≈ 19.4 µg/mL)
- MIC [7]: 16 µM (≈ 29.6 µg/mL)
- MIC (Escherichia coli W160-37): 21.4 µM (≈ 39.7 µg/mL)

Compound: CC[C@H](C)[C@H](NC(=O)[C@H](CCCCN)NC(=O)[C@H](CCCCN)NC(=O)[C@H](Cc1ccccc1)NC(=O)[C@H](CC(C)C)NC(=O)[C@H](CCCCN)NC(=O)[C@@H](N)CCCCN)C(=O)N[C@@H](CC(C)C)C(=O)N[C@@H](CCCCN)C(=O)N[C@H](C(=O)N[C@@H](CC(C)C)C(N)=O)C(C)C [KKLFKKILKVL]
- MIC [8]: 16 µM (≈ 21.7 µg/mL)
- MIC [9]: 0.849 µM (≈ 1.15 µg/mL)
- MIC [10]: 4 µM (≈ 5.43 µg/mL)
- MIC [11]: 8.66 µM (≈ 11.8 µg/mL)
- MIC [12]: 4 µM (≈ 5.43 µg/mL)
- MIC [13]: 13.7 µM (≈ 18.6 µg/mL)
- MIC [14]: 13.4 µM (≈ 18.2 µg/mL)
- MIC [15]: 5.92 µM (≈ 8.03 µg/mL)
- MIC [16]: 6.12 µM (≈ 8.31 µg/mL)
- MIC [17]: 3.16 µM (≈ 4.29 µg/mL)
